From patent publication US10065970B2 (Genentech, Inc., priority 2015, dated 2018)

target: PI3Kα (alpha) (Homo sapiens (Human), UniProt P42336); test: p110α (alpha) PI3K Binding Assay (ADP-Glo lipid kinase reaction); assay type: biochemical; conditions: PI3K alpha 0.2 nM, ATP 40 μM, PIP2:3PS 50 μM, 120 min, room temperature; Ki by Morrison Equation; read-out: PI3Kα-(alpha) ATP (Ki) micromolar
Method in brief: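 Enzyme with PIP2:3PS lipid substrate and ATP/MgCl2 in 50 mM HEPES, 50 mM NaCl, 3 mM MgCl2, 0.01% BSA, 1% DMSO, 120 min at room temperature. ADP formed detected by ADP-Glo luminescence. Ki from 10-point dose-response curves via the Morrison equation.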

Chain of PI3Kα (alpha) (P42336 whole entry): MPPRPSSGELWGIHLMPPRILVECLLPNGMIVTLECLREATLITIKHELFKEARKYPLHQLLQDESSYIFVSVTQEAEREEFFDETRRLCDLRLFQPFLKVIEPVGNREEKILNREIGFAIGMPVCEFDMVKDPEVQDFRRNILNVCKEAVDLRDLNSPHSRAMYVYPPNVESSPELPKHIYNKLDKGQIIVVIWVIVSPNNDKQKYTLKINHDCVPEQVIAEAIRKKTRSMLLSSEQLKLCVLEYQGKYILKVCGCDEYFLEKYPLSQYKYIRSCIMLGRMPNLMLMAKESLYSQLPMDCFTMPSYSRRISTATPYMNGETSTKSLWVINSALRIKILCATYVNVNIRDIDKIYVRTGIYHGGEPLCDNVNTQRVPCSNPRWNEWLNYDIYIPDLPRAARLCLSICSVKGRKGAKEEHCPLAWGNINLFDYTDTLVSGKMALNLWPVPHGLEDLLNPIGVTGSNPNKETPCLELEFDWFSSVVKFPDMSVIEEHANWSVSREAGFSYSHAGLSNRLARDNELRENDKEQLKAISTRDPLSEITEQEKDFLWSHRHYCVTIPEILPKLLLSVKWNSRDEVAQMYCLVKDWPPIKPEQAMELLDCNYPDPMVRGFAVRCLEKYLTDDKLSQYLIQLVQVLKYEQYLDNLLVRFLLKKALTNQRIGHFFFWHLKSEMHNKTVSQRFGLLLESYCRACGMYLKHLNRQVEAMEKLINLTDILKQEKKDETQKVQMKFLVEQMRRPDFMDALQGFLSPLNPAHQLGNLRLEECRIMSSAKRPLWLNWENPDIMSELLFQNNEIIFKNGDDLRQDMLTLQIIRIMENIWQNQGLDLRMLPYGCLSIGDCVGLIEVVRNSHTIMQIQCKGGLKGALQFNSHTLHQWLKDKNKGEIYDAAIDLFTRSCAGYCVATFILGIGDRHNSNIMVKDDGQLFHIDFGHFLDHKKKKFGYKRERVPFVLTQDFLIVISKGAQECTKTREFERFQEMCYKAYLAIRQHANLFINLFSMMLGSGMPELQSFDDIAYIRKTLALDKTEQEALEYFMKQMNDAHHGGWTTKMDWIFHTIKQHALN
Chain of PI3Kα (alpha) (P27986 whole entry partner): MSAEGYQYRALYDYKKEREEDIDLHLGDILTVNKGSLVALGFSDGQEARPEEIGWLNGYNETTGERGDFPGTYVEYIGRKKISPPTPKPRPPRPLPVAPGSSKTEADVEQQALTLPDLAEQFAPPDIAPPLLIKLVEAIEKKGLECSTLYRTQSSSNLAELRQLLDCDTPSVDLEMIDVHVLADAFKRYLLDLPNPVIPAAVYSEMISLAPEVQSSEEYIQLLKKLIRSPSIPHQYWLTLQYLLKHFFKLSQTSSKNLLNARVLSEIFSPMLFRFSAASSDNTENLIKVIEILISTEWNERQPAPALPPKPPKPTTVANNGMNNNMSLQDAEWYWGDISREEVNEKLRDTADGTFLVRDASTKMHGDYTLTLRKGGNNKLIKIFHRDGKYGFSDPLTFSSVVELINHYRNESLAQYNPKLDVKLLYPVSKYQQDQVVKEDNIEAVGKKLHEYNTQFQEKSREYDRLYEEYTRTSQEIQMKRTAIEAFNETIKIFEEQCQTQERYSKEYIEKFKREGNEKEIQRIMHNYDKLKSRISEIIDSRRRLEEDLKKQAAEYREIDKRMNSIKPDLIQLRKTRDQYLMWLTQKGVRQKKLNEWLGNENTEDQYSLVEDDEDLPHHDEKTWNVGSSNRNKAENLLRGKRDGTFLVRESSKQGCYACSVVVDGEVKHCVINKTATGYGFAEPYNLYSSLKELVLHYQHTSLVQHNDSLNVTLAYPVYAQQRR

Going from Nc1nc2cc(-n3nc4cc(Br)cc5c4c3CCCO5)ccc2o1 [Example 253, 5-(4-Bromo-8,9-dihydrooxepino[4,3,2-cd]indazol-1(7H)-yl)benzo[d]oxazol-2-amine] to Nc1nc2cc(-c3nc4c(F)c(Br)cc5c4n3CCCO5)ccc2o1 [Example 193, 5-(4-Bromo-3-fluoro-8,9-dihydro-7H-6-oxa-2,9a-diazabenzo[cd]azulen-1-yl)benzo[d]oxazol-2-amine], the Ki falls from 50.8 nM to 5.17 nM (9.8-fold). The second binds more tightly here.

First: NC(=O)[C@@H]1CCCN1c1cc2c3c(c1)nc(-c1ccc4c(c1)N1CCC(=O)N=C1O4)n3CCCO2 [Example 220, (S)-1-(1-(2-Oxo-3,4-dihydro-2H-benzo[4,5]oxazolo[3,2-a]pyrimidin-7-yl)-8,9-dihydro-7H-6-oxa-2,9a-diazabenzo[cd]azulen-4-yl)pyrrolidine-2-carboxamide]
Second: NC(=O)[C@@H]1CCCN1c1cc2c3c(c1)nc(-c1ccc4oc(N)nc4c1)n3CCCCO2 [Example 250, (S)-1-(1-(2-Aminobenzo[d]oxazol-5-yl)-7,8,9,10-tetrahydro-6-oxa-2,10a-diazacycloocta[cd]inden-4-yl)pyrrolidine-2-carboxamide]
The Ki of the first is higher: 2.92 nM for the first, under 0.02 nM for the second.

First: NC(=O)[C@@H](Oc1cc2c3c(c1)nc(-c1ccc(-c4ncn[nH]4)c(F)c1)n3CCCCO2)C1CC1 (single isomer, unassigned) [Example 305]
Second: C[C@H](Oc1cc2c3c(c1)nc(-c1ccc4nc(N)nnc4c1)n3CCCCO2)C(N)=O [Example 292, (S)-2-((1-(3-Aminobenzo[e][1,2,4]triazin-7-yl)-7,8,9,10-tetrahydro-6-oxa-2,10a-diazacycloocta[cd]inden-4-yl)oxy)propanamide]
The Ki of the first is lower: under 0.02 nM for the first, 0.024 nM for the second. The first binds more tightly here.

First: COc1ccc(-n2nc3cc(N[C@H](C(N)=O)C4CC4)cc4c3c2CCCO4)cn1 [Example 213, (S)-2-Cyclopropyl-2-((1-(6-methoxypyridin-3-yl)-1,7,8,9-tetrahydrooxepino[4,3,2-cd]indazol-4-yl)amino)acetamide]
Second: NC(=O)[C@@H](Nc1cc2c3c(c1)nc(-c1ccc4[nH]ncc4c1)n3CCCO2)C1CC1 [Example 133, (S)-2-((1-(1H-Indazol-5-yl)-8,9-dihydro-7H-6-oxa-2,9a-diazabenzo[cd]azulen-4-yl)amino)-2-cyclopropylacetamide]
The Ki of the first is 1.8-fold lower: 23.8 nM for the first, 43.4 nM for the second.

Compared with CC[C@H](C(N)=O)n1cc(-c2cc3c4c(c2)nc(-c2ccc5oc(N)nc5c2)n4CCCO3)cn1 [Example 216, (R)-2-(4-(1-(2-Aminobenzo[d]oxazol-5-yl)-8,9-dihydro-7H-6-oxa-2,9a-diazabenzo[cd]azulen-4-yl)-1H-pyrazol-1-yl)butanamide], CC(C)(C(N)=O)n1cc(-c2cc3c4c(c2)nc(-c2ccc5oc(N)nc5c2)n4CCCO3)cn1 [Example 124, 2-(4-(1-(2-Aminobenzo[d]oxazol-5-yl)-8,9-dihydro-7H-6-oxa-2,9a-diazabenzo[cd]azulen-4-yl)-1H-pyrazol-1-yl)-2-methylpropanamide] is 1.8-fold lower in Ki: 0.214 nM for the first, 0.117 nM for the second. The second binds more tightly here.

CNC(=O)C(C)(C)n1cc(-c2cc3c4c(c2)nc(-c2ccc5oc(N)nc5c2)n4CCCO3)cn1 [Example 154, 2-(4-(1-(2-Aminobenzo[d]oxazol-5-yl)-8,9-dihydro-7H-6-oxa-2,9a-diazabenzo[cd]azulen-4-yl)-1H-pyrazol-1-yl)-N,2-dimethylpropanamide] and COC[C@](C)(C(N)=O)n1cc(-c2cc3c4c(c2)nc(-c2ccc5oc(N)nc5c2)n4CCCO3)cn1 (single isomer, unassigned) [Example 232] are within 1.5-fold of each other in Ki: 0.317 nM for the first, 0.311 nM for the second.

NC(=O)[C@@H](Nc1cc2c3c(c1)nc(-c1ccc4ncncc4c1)n3CCCO2)C1CC1 [Example 119, (S)-2-Cyclopropyl-2-((1-(quinazolin-6-yl)-8,9-dihydro-7H-6-oxa-2,9a-diazabenzo[cd]azulen-4-yl)amino)acetamide] and NC(=O)[C@@H](Nc1cc2c3c(c1)nc(-c1cncnc1)n3CCCO2)C1CC1 [Example 134, (S)-2-Cyclopropyl-2-((1-(pyrimidin-5-yl)-8,9-dihydro-7H-6-oxa-2,9a-diazabenzo[cd]azulen-4-yl)amino)acetamide] are within 1.5-fold of each other in Ki: 215 nM for the first, 242 nM for the second.

First: NC(=O)[C@@H](Nc1cc2c3c(c1)nc(N1CCc4nccnc4C1)n3CCCO2)C1CC1 [Example 179, (S)-2-Cyclopropyl-2-((1-(7,8-dihydropyrido[3,4-b]pyrazin-6(5H)-yl)-8,9-dihydro-7H-6-oxa-2,9a-diazabenzo[cd]azulen-4-yl)amino)acetamide]
Second: NC(=O)[C@@H](Nc1cc2c3c(c1)nc(-c1ccc4[nH]c(=O)oc4c1)n3CCCO2)C1CC1 [Example 155, (S)-2-Cyclopropyl-2-((1-(2-oxo-2,3-dihydrobenzo[d]oxazol-6-yl)-8,9-dihydro-7H-6-oxa-2,9a-diazabenzo[cd]azulen-4-yl)amino)acetamide]
The Ki of the first is 2-fold higher: 154 nM for the first, 78 nM for the second.

Going from COc1ccc(CNC(=O)[C@@H]2CCCN2c2cc3c4c(c2)nc(-c2ccc5oc(N)nc5c2)n4CCCO3)cc1 [Example 236, (S)-1-(1-(2-Aminobenzo[d]oxazol-5-yl)-8,9-dihydro-7H-6-oxa-2,9a-diazabenzo[cd]azulen-4-yl)-N-(4-methoxybenzyl)pyrrolidine-2-carb oxamide] to C[C@H](Oc1cc2c3c(c1)nc(-c1ccc4oc(N)nc4c1)n3CCCO2)C(N)=O [Example 162, (S)-2-((1-(2-Aminobenzo[d]oxazol-5-yl)-8,9-dihydro-7H-6-oxa-2,9a-diazabenzo [cd]azulen-4-yl)oxy)propanamide], the Ki falls from 21 nM to 0.201 nM (100-fold). The second binds more tightly here.

Nc1nc2cc(-c3nc4cc(-c5cnn(CCO)c5)cc5c4n3CCCO5)ccc2o1 [Example 152, 2-(4-(1-(2-Aminobenzo[d]oxazol-5-yl)-8,9-dihydro-7H-6-oxa-2,9a-diazabenzo[cd]azulen-4-yl)-1H-pyrazol-1-yl)ethanol] and C[C@@H](Nc1cc2c3c(c1)nc(-c1ccc4oc(N)nc4c1)n3CCCO2)C(N)=O [Example 107, (R)-2-((1-(2-Aminobenzo[d]oxazol-5-yl)-8,9-dihydro-7H-6-oxa-2,9a-diazabenzo[cd]azulen-4-yl)amino)propanamide] are within 1.5-fold of each other in Ki: 0.638 nM for the first, 0.58 nM for the second.

Going from C[C@H](Oc1cc2c3c(c1)nc(-c1ccc4oc(N)nc4n1)n3CCCO2)C(N)=O [Example 266, (S)-2-((1-(2-Aminooxazolo[4,5-b]pyridin-5-yl)-8,9-dihydro-7H-6-oxa-2,9a-diazabenzo[cd]azulen-4-yl)oxy)propanamide] to C[C@H](Oc1cc2c3c(c1)nc(-c1ccc4oc(N)nc4c1F)n3CCCCO2)C(N)=O [Example 241, (S)-2-((1-(2-Amino-4-fluorobenzo[d]oxazol-5-yl)-7,8,9,10-tetrahydro-6-oxa-2,10a-diazacycloocta[cd]inden-4-yl)oxy)propanamide], the Ki falls from 0.108 nM to under 0.02 nM.

C[C@H](Oc1cc2c3c(nc(-c4ccc5oc(N)nc5c4)n3CCCO2)c1F)C(N)=O [Example 240, (S)-2-((1-(2-Aminobenzo[d]oxazol-5-yl)-3-fluoro-8,9-dihydro-7H-6-oxa-2,9a-diazabenzo[cd]azulen-4-yl)oxy)propanamide] and C[C@H](Oc1cc2c3c(c1)nc(-c1ccc4nc(N)sc4c1)n3CCCO2)C(N)=O [Example 274, (S)-2-((1-(2-Aminobenzo[d]thiazol-6-yl)-8,9-dihydro-7H-6-oxa-2,9a-diazabenzo[cd]azulen-4-yl)oxy)propanamide] are within 1.5-fold of each other in Ki: 1.61 nM for the first, 2.1 nM for the second.

Going from NC(=O)[C@@H]1CCCN1c1cc2c3c(c1)nc(-c1ccc(-c4nc[nH]n4)cn1)n3CCCO2 [Example 226, (S)-1-(1-(5-(1H-1,2,4-Triazol-3-yl)pyridin-2-yl)-8,9-dihydro-7H-6-oxa-2,9a-diazabenzo[cd]azulen-4-yl)pyrrolidine-2-carb oxamide] to NC(=O)[C@@H]1CCCN1c1cc2c3c(c1)nc(-c1ccc(-c4nc[nH]n4)c(Cl)c1)n3CCCO2 [Example 222, (S)-1-(1-(3-Chloro-4-(1H-1,2,4-triazol-3-yl)phenyl)-8,9-dihydro-7H-6-oxa-2,9a-diazabenzo[cd]azulen-4-yl)pyrrolidine-2-carb oxamide], the Ki falls from 0.393 nM to 0.261 nM (1.5-fold).

Going from C[C@H](Oc1cc2c3c(c1)nc(-c1cc4sc(N)nc4cc1F)n3CCCCO2)C(N)=O (single isomer, unassigned) [Example 277] to C[C@H](Oc1cc2c3c(c1)nc(-c1cc(F)c4sc(N)nc4c1)n3CCCCO2)C(N)=O [Example 285, (S)-2-((1-(2-Amino-7-fluorobenzo[d]thiazol-5-yl)-7,8,9,10-tetrahydro-6-oxa-2,10a-diazacycloocta[cd]inden-4-yl)oxy)propanamide], the Ki falls from 0.208 nM to 0.062 nM (3.4-fold). The second binds more tightly here.

Going from CC[C@H](Oc1cc2c3c(c1)nc(-c1ccc(-c4nc[nH]n4)cc1)n3CCCCO2)C(N)=O (single isomer, unassigned) [Example 268] to COC[C@@H](Oc1cc2c3c(c1)nc(-c1ccc4nc(N)sc4n1)n3CCCCO2)C(N)=O (single isomer, unassigned) [Example 314], the Ki rises from 0.0214 nM to 0.737 nM (34-fold).

Going from C[C@@H](C(N)=O)N(C)c1cc2c3c(c1)nc(-c1ccc4nc(N)sc4c1)n3CCCCO2 [Example 255, (S)-2-((1-(2-Aminobenzo[d]thiazol-6-yl)-7,8,9,10-tetrahydro-6-oxa-2,10a-diazacycloocta[cd]inden-4-yl)(methyl)amino)propanamide] to Nc1nc2cc(-c3nc4cc(N[C@H]5C[C@@H](F)C5)cc5c4n3CCCO5)ccc2o1 (single isomer, unassigned) [Example 203, 1-(2-Aminobenzo[d]oxazol-5-yl)-N-((1s,3s)-3-fluorocyclobutyl)-8,9-dihydro-7H-6-oxa-2,9a-diazabenzo[cd]azulen-4-amine], the Ki rises from 0.149 nM to 1.37 nM (9.2-fold). The first binds more tightly here.

same assay, conditions: read-out: PI3Kα-(alpha) ATP (Ki) micromolar

Compound C[C@H]1CCN(c2cc3c4c(c2)nc(-c2ccc5oc(N)nc5c2)n4CCCO3)[C@@H]1C(N)=O [Example 308, (2S,3S)-1-(1-(2-Aminobenzo[d]oxazol-5-yl)-8,9-dihydro-7H-6-oxa-2,9a-diazabenzo[cd]azulen-4-yl)-3-methylpyrrolidine-2-carboxamide] has a Ki of 0.627 nM.
